This is an account of results in US20100256086A1, “NON-HYDROLYZABLE NUCLEOSIDE DI- OR TRI-PHOSPHATE DERIVATIVES AND USES THEREOF” (priority 2007, published 2010).

Data set [1] in a line: Stability in human blood serum, Method A. The class given is in vitro ADME. Particulars: human blood serum and RPMI-1640, 37° C. As for the experimental part:
Preparation of the Human Blood Serum: Blood Taken from Healthy Volunteers was obtained from a blood bank (Tel-Hashomer hospital, Israel), stored for 12 h at 4° C. and centrifuged in plastic tubes at 1500 g for 15 min at room temperature. The serum was separated and stored at −80° C.
The assay mixture, containing a 40 mM nucleotide derivative solution in deionized water (4.5 μl), human blood serum (180 μl) and RPMI-1640 (540 μl), was incubated at 37° C. for 1, 4, 8, 16, 24, 48, 72 and 96 h. The samples were then treated with 0.6 M of hydrochloric acid (430 μl), centrifuged for 2 min (13,000 g, 4° C.), neutralized by addition of 4 M of KOH, centrifuged for 2 min (13,000 g, 4° C.) and freeze-dried. The stability of the nucleotide was evaluated by HPLC for monitoring possible dephosphorylation products. The mixture was separated on a Gemini analytic column (5u C-18 110A, 150×4.60 mm) with gradient elution [0.01 M KH2PO4 pH=4.5 (A)/acetonitrile (B), 100:0→60:40, A:B, 20 min for 2, 3A and 3B; 100:0→95:5, A:B, 10 min for ATP] and flow rate of 1 ml/min. The hydrolysis rate was determined by measuring the change in the integration of the respective HPLC peaks with time.

For another data set, the target named is T1, turkey P2Y1 (Meleagris gallopavo, UniProt P49652).
T1 construct: expressed in transfected cells
Put plainly: Intracellular calcium measurement ([Ca2+]i, fura-2) in 1321N1 astrocytoma cells. The class given is cell-based. Particulars: for activities at the P2YRs tested: P2Y1, P2Y2, P2Y4 and P2Y6 tested; for EC50: human 1321N1 astrocytoma cells expressing turkey P2Y1, read-out: Compound-induced activation of [Ca2+] EC50, P2Y1. As for the experimental part:
(§1) Human 1321N1 astrocytoma cells stably expressing the turkey P2Y1, human P2Y2, human P2Y4 or rat P2Y6 were grown in Dulbecco's modified Eagle's medium containing 5% (v/v) fetal bovine serum, 100 units/ml penicillin, 100 μg/ml streptomycin and 500 μg/ml Geneticin (G-418, Life Technologies, Inc). Changes in the intracellular free calcium concentration, [Ca^2+]i were detected by dual-excitation spectrofluorometric analysis of cell suspensions loaded with fura-2, as previously described (Garrad et al., 1998; Grynkiewicz et al., 1985). Cells were assayed in 10 mM Hepes-buffered saline (pH 7.4) containing 1 mM CaCl2 and 1 mM MgCl2. The cells were pelleted in a microfuge and resuspended in 2 ml of buffer. Concentration-response data were analyzed with the Prism curve fitting program (GraphPAD Software, San Diego, Calif.). Three experiments were conducted on separate days for each P2Y receptor subtype.
(§2) The activities of compounds 2, 4B, 17, 18, 19A, 21 (isomers A and B) were examined at the G protein-coupled P2YRs, P2Y1, P2Y2, P2Y4 and P2Y6 expressed in human 1321N1 astrocytoma cells, based on intracellular calcium measurements, as described in Experimental above. In particular, the activity of compound 2, 4B and 19 was examined at P2Y1R, P2Y2R, P2Y4R and P2Y6R, and the activity of compounds 17, 18 and 21 was examined at P2Y1R only. The experiments were conducted by Prof. Gary A. Weisman from Columbia-Missouri University, Columbia, Mo., USA.

The conditions of data set [2]: cited from earlier work.
In another data set the target is T2, human P2Y2 (Homo sapiens, UniProt P41231).
T2 construct: expressed in transfected cells
The experiment in a line: Intracellular calcium measurement ([Ca2+]i, fura-2) in 1321N1 astrocytoma cells. The class given is cell-based. The procedure:
as §1, §2
(A change in cytosolic calcium serves as a functional read-out for many receptors and channels.)

A further data set has as its target T3, rat P2Y6 (Rattus norvegicus, UniProt Q63371).
T3 construct: expressed in transfected cells
The description is as above. The class given is cell-based. Particulars: 1321N1 cells expressing rat P2Y6; read-out: Compound-induced activation of [Ca2+] EC50, P2Y6. The procedure: as §1, §2

The target of a further data set is T4, human P2Y4 (Homo sapiens, UniProt P51582).
T4 construct: expressed in transfected cells
Described as above. Format: cell-based. Particulars: 1321N1 cells expressing human P2Y4; read-out: Compound-induced activation of [Ca2+] EC50, P2Y4. The procedure:
as §1, §2

A further data set deals with ecto-nucleotidases. The note with it: muscle strips preparations, 60 min incubation; cited from earlier work.

Structures are written as SMILES.

T1 sequence (P49652 whole entry): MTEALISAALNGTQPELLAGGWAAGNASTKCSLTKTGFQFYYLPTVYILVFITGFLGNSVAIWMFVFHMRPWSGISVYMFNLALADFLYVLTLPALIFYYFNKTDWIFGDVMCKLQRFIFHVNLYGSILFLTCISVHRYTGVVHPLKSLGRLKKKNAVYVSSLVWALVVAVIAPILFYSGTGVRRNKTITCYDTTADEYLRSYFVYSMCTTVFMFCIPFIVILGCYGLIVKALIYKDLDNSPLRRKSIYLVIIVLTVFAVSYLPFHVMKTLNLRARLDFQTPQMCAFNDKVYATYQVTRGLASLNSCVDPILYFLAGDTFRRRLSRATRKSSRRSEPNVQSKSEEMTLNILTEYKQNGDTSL
T2 sequence (P41231 whole entry): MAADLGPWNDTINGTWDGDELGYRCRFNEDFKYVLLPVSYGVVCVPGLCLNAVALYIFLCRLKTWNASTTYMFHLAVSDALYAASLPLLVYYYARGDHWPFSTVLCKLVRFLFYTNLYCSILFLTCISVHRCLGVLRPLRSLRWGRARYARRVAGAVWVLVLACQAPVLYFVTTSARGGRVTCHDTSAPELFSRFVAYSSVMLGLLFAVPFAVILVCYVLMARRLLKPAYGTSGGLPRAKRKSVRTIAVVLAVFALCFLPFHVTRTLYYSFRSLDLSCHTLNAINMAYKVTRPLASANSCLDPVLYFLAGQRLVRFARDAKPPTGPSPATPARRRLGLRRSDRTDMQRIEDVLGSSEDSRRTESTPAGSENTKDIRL
T4 sequence (P51582 whole entry): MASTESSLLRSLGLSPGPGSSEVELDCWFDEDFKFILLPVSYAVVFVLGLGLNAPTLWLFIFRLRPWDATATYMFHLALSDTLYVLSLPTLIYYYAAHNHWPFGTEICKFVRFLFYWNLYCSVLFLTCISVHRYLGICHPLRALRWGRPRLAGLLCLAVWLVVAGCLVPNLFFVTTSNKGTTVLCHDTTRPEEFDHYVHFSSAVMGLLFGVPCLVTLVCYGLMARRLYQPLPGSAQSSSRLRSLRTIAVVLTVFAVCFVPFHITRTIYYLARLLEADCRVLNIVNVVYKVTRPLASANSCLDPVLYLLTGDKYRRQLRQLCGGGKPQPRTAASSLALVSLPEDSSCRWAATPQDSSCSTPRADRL
T3 sequence (Q63371 whole entry): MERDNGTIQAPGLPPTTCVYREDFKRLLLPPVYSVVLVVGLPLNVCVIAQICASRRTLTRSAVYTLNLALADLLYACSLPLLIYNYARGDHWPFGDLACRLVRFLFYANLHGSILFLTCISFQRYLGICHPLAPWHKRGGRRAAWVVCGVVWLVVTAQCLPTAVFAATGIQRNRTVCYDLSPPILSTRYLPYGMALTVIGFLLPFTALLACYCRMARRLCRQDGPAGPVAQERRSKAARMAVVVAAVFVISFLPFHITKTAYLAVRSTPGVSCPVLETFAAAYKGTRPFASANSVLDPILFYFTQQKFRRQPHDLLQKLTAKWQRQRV

`B[P@](=O)(OC[C@H]1O[C@@H](n2cnc3c(N)ncnc32)[C@H](O)[C@@H]1O)OP(=O)(O)CP(=O)(O)O` (single isomer, unassigned) [Compound 3A, Adenosine-β,γ-CH2-5′-O-(1-boranotriphosphate)]: the “half-life in human blood serum” value in data set [1] stood at 14.1 h. Also, on turkey P2Y1, the “activity at P2Y1R, in words” value was “practically inactive” and the “activities at the P2YRs tested” value is listed as “insignificant activities”.
For the molecule `BP(=O)(OC[C@H]1O[C@@H](n2cnc3c(N)nc(SC)nc32)[C@H](O)[C@@H]1O)OP(=O)(O)C(Cl)(Cl)P(=O)(O)O` (single isomer, unassigned) [Compound 21, 2MeS-adenosine-β,γ-CCl2-5′-O-(1-boranotriphosphate)], in data set [2], the “pKa value of the terminal phosphonate” value is recorded as “about 6.7”.
Take `BP(=O)(OC[C@H]1O[C@@H](n2cnc3c(N)nc(SC)nc32)[C@H](O)[C@@H]1O)OP(=O)(O)C(Cl)(Cl)P(=O)(O)O` (single isomer, unassigned) [Compound 21A, 2MeS-adenosine-β,γ-CCl2-5′-O-(1-boranotriphosphate)]: on turkey P2Y1, the EC50 (commonly the midpoint of the concentration-response curve) came out at 570 nM.
Regarding `BP(=O)(OC[C@H]1O[C@@H](n2cnc3c(N)nc(SC)nc32)[C@H](O)[C@@H]1O)OP(=O)(O)C(Cl)(Cl)P(=O)(O)O` (single isomer, unassigned) [Compound 21B, 2MeS-adenosine-β,γ-CCl2-5′-O-(1-boranotriphosphate)], at turkey P2Y1, the EC50 was 1200 nM.
For `B[P@](=O)(OC[C@H]1O[C@@H](n2cnc3c(N)nc(SC)nc32)[C@H](O)[C@@H]1O)OP(=O)(O)CP(=O)(O)O` [Compound 4A, 2MeS-adenosine-β,γ-CH2-5′-O-(1-boranotriphosphate)], the “activity at P2Y2R, in words” value at human P2Y2 is recorded as “inactivity”. The “activities at the P2YRs tested” value on turkey P2Y1 was “insignificant activities”.
As to `CSc1nc(N)c2ncn([C@@H]3O[C@H](COP(=O)(O)C(Cl)(Cl)P(=O)(O)O)[C@@H](O)[C@H]3O)c2n1` [Compound 17, 2-MeS-adenosine-5′-dichloromethylene-diphosphate], the EC50 at turkey P2Y1 stood at 3100 nM. The “pKa value of the terminal phosphonate” value in data set [2] was “about 6.7”.
For the molecule `CSc1nc(N)c2ncn([C@@H]3O[C@H](COP(=O)(O)C(F)(F)P(=O)(O)O)[C@@H](O)[C@H]3O)c2n1` [Compound 18, 2-MeS-adenosine-5′-difluoromethylene-diphosphate], the concentration giving a half-maximal response (EC50) on turkey P2Y1 stood at 980 nM. Besides, in data set [2], the “pKa value of the terminal phosphonate” value was “about 6.7”.
Take `O=c1ccn([C@@H]2O[C@H](COP(=O)(O)OP(=O)(O)O)[C@@H](O)[C@H]2O)c(=O)[nH]1` [UDP, reference compound]: the EC50 at rat P2Y6 stood at 200 ± 60 nM.
`O=c1ccn([C@@H]2O[C@H](COP(=O)(O)OP(=O)(O)OP(=O)(O)O)[C@@H](O)[C@H]2O)c(=O)[nH]1` [UTP, reference compound]: the EC50 stood at 640 ± 250 nM on human P2Y2 (1321N1 cells expressing human P2Y2, read-out: Compound-induced activation of [Ca2+] EC50, P2Y2) and 480 ± 310 nM on human P2Y4.
For `Nc1ncnc2c1ncn2[C@@H]1O[C@H](COP(=O)(O)OP(=O)(O)CP(=O)(O)O)[C@@H](O)[C@H]1O` [β,γ-CH2-ATP], the degradation by ecto-nucleotidases result in the data set with ecto-nucleotidases was “no degradation”.
